Data from patent US9296778B2, “3′,5′-cyclic phosphate prodrugs for HCV infection” (Idenix Pharmaceuticals, Inc., priority 2012, dated 2016).
Like-named read-outs stand apart in the source and are kept apart here.

Legend:
in vitro = settings: human, HCV Replicon CC50, Zluc cells, CellTiter-Blue
fresh human hepatocytes = assay: Release of active metabolite in fresh human hepatocytes; assay type: in vitro ADME; settings: 10 μM compound; for FHH TP Cmax: fresh human hepatocytes; for FHH TP AUC: fresh human hepatocytes, 6, 24 and 48 hours
Method: (§1) Plates of fresh human and mouse hepatocytes were obtained on ice. The medium was removed and replaced with hepatocyte culture medium (William's E supplemented with penicillin-streptomycin, 1% L-glutamine, 1% insulin-transferrin-selenium and 0.1 μM Dexamethasone (Invitrogen) or with Invitro GRO HI medium complemented with Torpedo antibiotics (Celsis)). Cells were left overnight in an incubator at 37° C. to acclimatize to culture and the medium.
(§2) Hepatocyte incubations were conducted at a final volume of 0.5 mL hepatocyte culture medium/well (0.8 million cells/well for human and 0.5 million cells/well for mouse; 12 well plate no overlay, collagen coat). Culture medium from overnight incubation of cells was removed and replaced with fresh medium, pre-warmed to 37° C., containing 10 μM of test compound from a stock solution in DMSO (final DMSO concentration was 0.1%). At each specific time point, incubation medium was removed and cell monolayers were carefully washed two times with ice-cold PBS. Following the last wash, all PBS was carefully removed and 1.0 mL of extraction solution (ice-cold 70% methanol/30% water) added. Cells were scraped off and suspended in the extraction solution, transferred to 2 mL polypropylene microfuge tubes and intracellular contents extracted overnight at −20° C.
(§3) After the overnight treatment the cellular extracts were prepared by centrifugation at 16,000×g for 10 min to remove cellular debris. The remaining sample was then dried using a refrigerated centrivap concentrator. Dry extracts were reconstituted in 1000 μL of HPLC-grade water and centrifuged at 16,000×g for 10 min. Aliquots (100 μL each) of the supernatant were transferred into a 96 well plate and internal standard (4 ng/mL final concentration) was added as the internal standard (IS) for LC-MS/MS analysis.
(§4) The incubation time points were 6, 24 and 48 hours for human hepatocytes and 1, 4, 8, 12 and 24 hours for mouse hepatocytes.

[1] = Stability in fresh human whole blood; assay type: in vitro ADME; settings: 0.5 μM, percent unchanged test compound
Method: (§5) Stability of compounds were determined in fresh human whole blood with K2EDTA as the anticoagulant (stored refrigerated at 2-8° C. and used within 7 days of receipt). The experiment was conducted with three replicates for each time point. Whole blood, pre-incubated at 37° C. for 10-15 minutes, was fortified with a solution of test compound for a final concentration of 0.5 μM and mixed for 30 sec. At intervals (0, 0.5, 1 and 2 hr), three 50 μL aliquots were combined with 200 μL (each) of an ice-cold solution of the internal standard (carbutamide 500 ng/mL in acetonitrile). The samples were vortexed for 30 sec and then centrifuged at 16,100 g for 5 min. The supernatant was analyzed by LC-MS/MS. The MS peak area ratio of the test compounds versus the internal standard was calculated and percent unchanged test compound was calculated for each time point using this ratio.

Stability in mouse blood = assay type: in vitro ADME; settings: on ice, percent unchanged test compound
Method: as §5
The stability in mouse blood was determined on ice at 0, 0.5 and 1 hr as herein.

[2] = Stability in simulated intestinal fluid; assay type: in vitro ADME; settings: 100 μM, 2 hours at 37° C., percent of the peak area at time zero
Method: Simulated gastric and intestinal fluids containing pepsin and pancreatin respectively were prepared according to the U.S. Pharmacopoeia USP291 procedure (www.pharmacopeia.cn/v29240/usp29nf24s0_ris1s126.html). Compounds (final concentration 100 μM) were incubated in duplicate in the appropriate fluid for 2 hours at 37° C. The samples were quenched with 200 μl cold acetonitrile, vortexed for 30 seconds and then centrifuged at 16,100 g for 10 min. The supernatants were analyzed by HPLC on a C-18 column with UV detection at 252 nm. The time 0 samples were prepared by adding SGF or SIF fluid to the quenching solvent followed by the test compound. Stability of the compounds was determined by peak area of the test compounds after incubation and calculated as percent of the peak area observed at time zero.

HCV genotype 1b replicon = assay: HCV Replicon Assay; assay type: cell-based; settings: Zluc cells (Huh-7-derived, HCV genotype 1b replicon, luciferase reporter), 72 hours, read-out: HCV Replicon EC50
Method: Huh-7-derived cell line (Zluc) that harbors an HCV genotype 1b replicon and a luciferase reporter gene was grown in Dulbecco's Modified Eagle Medium (DMEM) supplemented with 10% fetal bovine serum, 2 mM GlutaMAX, 1% MEM nonessential amino acids, 100 IU/mL penicillin, 100 μg/mL streptomycin, and 0.5 mg/mL Geneticin® (G418). For dose response testing the cells were seeded in 96-well plates at 7.5×10^3 cells per well in a volume of 50 μL, and incubated at 37° C./5% CO2. Drug solutions were made up freshly in Huh-7 media as 2× stocks. Ten additional 5-fold dilutions were prepared from these stocks in DMEM without G418. At least three hours after Zluc cells were seeded, drug treatment was initiated by adding 50 μL of drug dilutions to the plates in duplicate. Final concentrations of drug ranged from 100 μM to […]. Cells were then incubated at 37° C./5% CO2. Alternatively, compounds were tested at two concentrations (1 μM and 10 μM). […] For this, media was removed from the plates via gentle tapping. Fifty microliters of ONE-glo luciferase assay reagent was added to each well. The plates were shaken gently for 3 min at room temperature and luminescence was measured on a Victor^3 V 1420 multilabel counter (Perkin Elmer) with a 1 second read time using a 700 nm cut-off filter. The EC50 values were calculated from dose response curves from the resulting best-fit equations determined by Microsoft Excel and XLfit 4.1 software. When screening at two fixed concentrations, the results were expressed as % inhibition at 1 μM and 10 μM.

[3] = Liver pharmacokinetics following a single oral dose in CD-1 mice; assay type: in vivo; settings: single oral dose 25 mg/kg in PEG 200, CD-1 male mice; given at 1 μmol/kg; 25 mg/kg
Method: (§6) A single oral dose of test compound at 25 mg/kg in PEG 200 (dose volume 5 mL/kg) was administered to nine CD-1 male mice. Five untreated animals were used for the collection of control plasma and liver. Terminal plasma and liver samples were collected from three animals per time point at 4, 12 and 24 hours post dose. Liver specimens were collected from all animals immediately after the incision. Freezing forceps stored in liquid nitrogen were used to freeze the liver before excision.
Liver samples were analyzed for the active species 2′-methylguanosine triphosphate (2′-MeGTP) by LC-MS/MS. 2′-MeGTP levels were assayed by homogenizing (on ice) a known weight of mouse liver with 4× volume of 0.95 M trichloroacetic acid (TCA). Internal standard solution was added to the homogenate followed by neutralization with 20% ammonium hydroxide solution and addition of 500 μL 1% formic acid. The tissue samples were extracted by weak anion exchange solid phase extraction (SPE). Post extraction, the eluates were evaporated under nitrogen, followed by reconstitution before injection onto the LC-MS/MS system. The samples were chromatographed on a Luna NH2 column using a gradient system of ammonium acetate (1 mM to 20 mM and pH 8.0 to pH 10.0) in water and acetonitrile (70:30). The analyte was detected and quantified by tandem mass spectrometry in positive ion mode on an API4000 equipped with a Turbo Ionspray® interface. The calibration range was 10 to 10000 pmol/mL in mouse liver homogenate (50 to 50000 pmol/g of mouse liver).

[4] = Plasma pharmacokinetics following a single oral dose in CD-1 mice; assay type: in vivo; settings: single oral dose 25 mg/kg in PEG 200, CD-1 male mice; given at 1 μmol/kg; 25 mg/kg
Method: as §6
Plasma samples were analyzed for 2′-methylguanosine (2′-MeG) by LC-MS/MS. The internal standard (IS) was 2′-MeG-D3. For protein precipitation and extraction, each plasma sample (50 μL) was treated with 500 μL of 0.2% formic acid in acetonitrile and 20 μL of the internal standard working solution. After vortexing and centrifugation, 500 μL of the sample extracts were transferred to a new plate, dried under N2 at ˜28° C. and reconstituted with 75 μL of 0.2% FA in water. The extracts were chromatographed on an Aquasil C18 column using a gradient system of 0.2% formic acid in water and acetonitrile. The analytes were detected and quantified by tandem mass spectrometry in positive ion mode on an MDS Sciex API5000 equipped with a Turbo Ionspray® interface. The calibration range was 0.500 (LLOQ) to 200 ng/mL in mouse plasma.

Zluc cells = assay: cytotoxicity evaluation (CellTiter-Blue Cell Viability Assay); settings: read-out: HCV Replicon CC50; Zluc cells, CellTiter-Blue
mouse hepatocytes = assay: Release of active metabolite in mouse hepatocytes; assay type: in vitro ADME; settings: 10 μM compound; for MsH Cmax: mouse hepatocytes; for MsH AUC: mouse hepatocytes, 1, 4, 8, 12 and 24 hours
Method: as §1, §2, §3, §4

Row | Structure (SMILES) | CC50 (in vitro) | FHH TP Cmax (fresh human hepatocytes) | FHH TP AUC (fresh human hepatocytes) | Stability WB_Human (37° C.; 2 hr) [1] | Stability WB_Mouse (ice; 1 hr) (Stability in mouse blood) | Stability SIF [2] | EC50 (HCV genotype 1b replicon; Hepatitis C virus, 72 h) | Ms Liver 2′-MeGTP AUC [3] | Ms Plasma 2′-MeG AUC [4] | Ms Plasma 2′-MeG Cmax [4] | CC50 (Zluc cells) | MsH Cmax (mouse hepatocytes) | MsH AUC (mouse hepatocytes) | EC50 (HCV genotype 1b replicon)
1 | CCOc1nc(N)nc2c1ncn2[C@@H]1O[C@@H]2COP(=O)(OCCCC(=O)OC(C)C)O[C@H]2[C@@]1(C)O (single isomer, unassigned) [Compound 1 Diastereomer 1] | > 50 µM | 85 pmol/mill cells | 3425 pmol · hr/mill cells | 73% | 79% | 105% | 0.25 to 1 µM | 560 pmol · hr/g at 1 μmol/kg | 9 pmol · hr/mL at 1 μmol/kg | 0.56 pmol/mL at 1 μmol/kg | – | – | – | –
2 | CCOc1nc(N)nc2c1ncn2[C@@H]1O[C@@H]2COP(=O)(OCCCC(=O)OC(C)C)O[C@H]2[C@@]1(C)O (single isomer, unassigned) [Compound 1 Diastereomer 2] | – | 278 pmol/mill cells | 10125 pmol · hr/mill cells | 87% | 1% | 83% | – | 7400 pmol · hr/g at 1 μmol/kg | 68 pmol · hr/mL at 1 μmol/kg | 8.6 pmol/mL at 1 μmol/kg | < 50 µM | 330 pmol/mill cells | 8363 pmol · hr/mill cells | < 0.25 µM
3 | CCOc1nc(N)nc2c1ncn2[C@@H]1O[C@@H]2COP(=O)(OCCSC(=O)C(C)(C)CO)O[C@H]2[C@@]1(C)O (single isomer, unassigned) [Compound 4 Diastereomer 1] | < 50 µM | 120 pmol/mill cells | 4110 pmol · hr/mill cells | 82% | – | 105% | < 0.25 µM | 480 pmol · hr/g at 1 μmol/kg | 6.7 pmol · hr/mL at 1 μmol/kg | 0.5 pmol/mL at 1 μmol/kg | – | 468 pmol/mill cells | 15078 pmol · hr/mill cells | –
4 | CC(C)OC(=O)CCCOP1(=O)OC[C@H]2O[C@@H](n3cnc4c(=O)[nH]c(N)nc43)[C@](C)(F)[C@@H]2O1 (single isomer, unassigned; diastereomer 1) [Compound 6 Diastereomer 1] | – | – | – | – | – | – | – | 35 pmol · hr/g at 1 μmol/kg | 13 pmol · hr/mL at 1 μmol/kg | 1.3 pmol/mL at 1 μmol/kg | > 50 µM | – | BLD^a | 1 to 10 µM
5 | CC(C)OC(=O)CCCOP1(=O)OC[C@H]2O[C@@H](n3cnc4c(=O)[nH]c(N)nc43)[C@](C)(F)[C@@H]2O1 (single isomer, unassigned; diastereomer 2) [Compound 6 Diastereomer 2] | – | – | – | – | – | – | – | 530 pmol · hr/g at 1 μmol/kg | 54 pmol · hr/mL at 1 μmol/kg | 7.2 pmol/mL at 1 μmol/kg | > 50 µM | – | BLD^a | < 0.25 µM
